Data set [1] has as its system LTC4. Nature of the data set: LTC4 antagonism in isolated guinea-pig trachea (LTC4-induced contraction). The data set is classed as cell-based. The following applies: 5 min, test compound 10^-5 g/ml, LTC4 2×10^-8 g/ml, guinea-pig trachea; for inhibition at 10 µg/mL: Cavia porcellus, read-out: LTC4 antagonism. Here is the method:
(§1) (ii) LTC4 and LTD4 antagonisms in guinea-pig trachea
(§2) Antagonism for LTC4 and LTD4 were determined in isolated guinea-pig trachea prepared as spiral strip. 10 Tracheal preparations were suspended under 1 g tension in […] and they were incubated for 1 hr prior to use. Contractile responses to LTC4 (2×10^-8 g/ml) and LTD4 (2×10^-8 g/ml) were obtained after the maximal response to histamine (10^-4 M). Test compounds dissolved in 100% dimethyl sulfoxide were added to the organ baths (final concentration of 10^-5 g/ml) 5 min prior to LTC4 and LTD4 addition, and then contractile responses to LTC4 and LTD4 were compared with those of control which was obtained from a paired trachea in the absence of test compounds. LTC4 - and LTD4 -induced contractions were expressed as a percentage of the maximal response to histamine. The antagonism was determined as follows: Antagonism (%)=(1.0-% contraction in test/% contraction in control)×100

For data set [2], the system named is SRS-A. Nature of the data set: SRS-A antagonism in guinea-pig ileum (SRS-A-induced contraction). The data set is classed as cell-based. The following applies: 1 min, test compound 5×10^-7 g/ml, isolated guinea-pig ileum; for inhibition at 0.5 µg/mL: Cavia porcellus. The protocol:
(i) SRS-A antagonism in quinea-pig ileum
SRS-A antagonism was determined against the contraction induced by SRS-A in isolated guinea-pig ileum. The SRS-A was prepared in accordance with the method of Brocklehurst (J. Physiol., 151, 416, 1960) and Kohno and Parker (J. Immunol., 125, 446, 1980). Adult male guinea-pigs (200-250 g) were sensitized with chick egg albumin (EA), 100 mg subcutaneously and 100 mg intraperitoneally. Three weeks later the animals were killed by a blow on the head and lungs were perfused free of blood with Tyrode solution passed through the right ventricle. Isolated lungs were chopped into pieces (1 mm^3) by a scissors in Tyrode solution and filtrated with gauze, and then 1.0-1.3 g of chopped lung fragments were distributed into individual tubes (9.7 ml of Tyrode solution/tube). EA solution (0.3 ml) at a 3×10^-4 g/ml final concentration was added to the tubes and incubated for 20 min at 37° C., and then the supernatant was used for the SRS-A antagonism.
Assay for SRS-A antagonism was performed as follows: Ileum preparations isolated from male guinea-pig (300-400 g) were suspended under 0.5 g tension in organ baths (5 ml) containing Tyrode solution maintained at 30° C. and gassed with 95% O2 +5% CO2. After the repeated responses to histamine (10^-7 g/ml) was established, the contractile response to SRS-A (0.5 ml) was carried out in the presence of 10^-6 M atropine and 10^-6 M pyrilamine. Test compounds dissolved in 100% dimethyl sulfoxide were added to the organ baths (final concentration of 5×10^-7 g/ml) 1 min prior to the SRS-A addition, and SRS-A-induced contractions were compared with those of control (SRS-A-induced contraction before the treatment). The SRS-A antagonism (%) =[1.0 - (SRS-A-induced contraction in test compound)/control]×100

Data set [3] deals with antigen-induced anaphylactic bronchoconstriction. Nature of the data set: Effect on anaphylactic bronchoconstriction in passively sensitized guinea-pig. The data set is classed as in vivo. The conditions noted are these: 2 mg/kg, i.v. The protocol: (iii) Effect on anaphylactic bronchoconstriction in passively sensitized guinea-pig
Male guinea-pigs (350-450 g) were passively sensitized with intravenous (i.v.) injection of 0.125 ml rabbit anti-EA serum (Cappel Laboratories) 1 day preceding the experiment. […] The right jugular vein was cannulated for the administration of the all agents and trachea was cannulated to record total pulmonary resistance. Guinea-pigs were artificially ventilated by a small animal respirator (Shinano, Model SN-480-7) set at a stroke volume of 4-5 ml and a rate of 50 breaths per min. […] The increase in air overflow volume was expressed as a percentage of the maximum bronchoconstriction obtained by clamping off the trachea. Following surgical preparation, the animals were pretreated with indomethacin (1.0 mg/kg, 10 min), pyrilamine (2 mg/kg, 6 min) and propranolol (0.1 mg/kg, 5 min) prior to the EA challenge (0.1 or 10 mg/kg). All test compounds, 2 mg/kg in 3% Tween 80 or 3% PEG-400, were administered 1 min before the EA challenge. Inhibition (%) of bronchoconstriction was determined as follows Inhibition (%)=(1.0% -maximum bronchoconstriction in test/% maximum bronchoconstriction in control) ×100.
In the Table, the dose of EA was 10 mg/kg, and each compound was dissolved or suspended in 3% Tween 80.
In the Table, the dose of EA was 0.1 mg/kg.
*: PEG represents polyethylene glycol400.

Data set [4] relates to ddY strain male. The data set can be described thus: Acute toxicity test, method-(2), intraperitoneal injection. The data set is classed as in vivo, ddY strain male (4 weeks old). The following applies: 7 days. The protocol: The lethal ratio was determined in ddY strain male (4 weeks old) at 7 days after the intraperitoneal injection of test compounds.
In data set [5] the test system is LTD4. Nature of the data set: LTD4 antagonism in isolated guinea-pig trachea (LTD4-induced contraction). The data set is classed as cell-based. The following applies: Cavia porcellus, 5 min, test compound 10^-5 g/ml, LTD4 2×10^-8 g/ml. Here is the method:
as §1, §2

Where [6] appears, read: EA 0.1 mg/kg, PEG (polyethylene glycol 400).

As for `COCCNC(=O)c1ccc(CNc2cnn(C(C)(C)C)c(=O)c2Cl)cc1` [compound 55], in data set [1], the inhibition at 10 µg/mL worked out at 14%. The same compound displayed an inhibition at 0.5 µg/mL in data set [2] of 12%.
The like results for `CCN(CC)Cc1ccc(CNc2cnn(C(C)(C)C)c(=O)c2Cl)cc1` [compound 32] were, in that order, 20% and 18%.
`CCCN(CCC)Cc1ccc(CN(C)c2cnn(C(C)(C)C)c(=O)c2Cl)cc1` [Compound No. 43, 4-Chloro-5-(4-di-n-propylaminomethyl-N-methylbenzylamino)-2-t-butyl-3(2H)pyridazinone]: in data set [1], the inhibition at 10 µg/mL was determined as 57%. Further, the “Inhibition of anaphylactic bronchoconstriction” value in data set [3] (EA 10 mg/kg, 3% Tween 80) was found to be 14%.
With `CCN(CC)C(=O)c1ccc(CNc2cnn(C(C)(C)C)c(=O)c2Cl)cc1` [compound 38], in data set [2], the inhibition at 0.5 µg/mL turned out to be 31%.
Take `CC(C)c1ccc(CNc2cnn(C(C)(C)C)c(=O)c2Cl)cc1` [Compound No. 5]: in data set [1], the inhibition at 10 µg/mL was found to be 67%. Besides, in data set [2], the inhibition at 0.5 µg/mL came out at 74%.
`CCN1CCN(Cc2ccc(CNc3cnn(C(C)(C)C)c(=O)c3Cl)cc2)CC1` [compound 35] gave an LTC4 antagonism in data set [1] of 37%. For the same compound, the inhibition at 0.5 µg/mL in data set [2] stood at 10%.
With `CCCOc1cc(CNc2cnn(C(C)C)c(=O)c2Cl)ccc1OC` [Compound No. 106, 4-Chloro-5-(3-n-propoxy-4-methoxybenzylamino)-2-i-propyl-3(2H)pyridazinone], the “Lethal ratio (Death number/Experimental number)” value is 0/2 in data set [4] (200 mg/kg) and 0/1 in data set [4] (400 mg/kg). The inhibition at 10 µg/mL in data set [1] and in data set [5] was 100% throughout. For the same compound, the “Inhibition of anaphylactic bronchoconstriction” value in data set [3] (EA 0.1 mg/kg, Tween 80) stood at 65%.
As to `CCCOc1cc(CNc2cnn(CC)c(=O)c2Cl)ccc1OC` [Compound No. 105], the “Lethal ratio (Death number/Experimental number)” value in data set [4] (100 mg/kg) is recorded as 0/2. In addition, the inhibition at 10 µg/mL in data set [1] and in data set [5] was 100% throughout. For the same compound, in data set [3] (EA 0.1 mg/kg, Tween 80), the “Inhibition of anaphylactic bronchoconstriction” value was 29%.
With `CCOc1cc(CNc2cnn(C(C)C)c(=O)c2Cl)ccc1OC` [compound 103], the “Lethal ratio (Death number/Experimental number)” value in data set [4] (200 mg/kg) was 0/2. The inhibition at 10 µg/mL in data set [1] and in data set [5] was 100% each time. The “Inhibition of anaphylactic bronchoconstriction” value in data set [3] (EA 0.1 mg/kg, Tween 80) came to 76%.
For the compound `COc1ccc(CNc2cnn(C(C)C)c(=O)c2Cl)cc1OC` [Compound No. 15], the inhibition at 10 µg/mL stood at 100% in data set [1] and 80% in data set [5]. Further, the “Inhibition of anaphylactic bronchoconstriction” value in data set [3] (EA 10 mg/kg, 3% Tween 80) is on record as 56%.
Take `CCOc1ccc(CNc2cnn(C(C)C)c(=O)c2Cl)cc1` [compound 91]: the “Lethal ratio (Death number/Experimental number)” value in data set [4] (100 mg/kg) is recorded as 0/2. In addition, in data set [5], the inhibition at 10 µg/mL was 93%. Further, the “Inhibition of anaphylactic bronchoconstriction” value in data set [3] (setting [6]) was 73%.
As for `CN1CCN(C(=O)c2ccc(CNc3cnn(C(C)(C)C)c(=O)c3Cl)cc2)CC1` [compound 41], the inhibition at 0.5 µg/mL in data set [2] worked out at 15%.
Consider `CCCn1ncc(NCc2ccc(OC)c(OC)c2)c(Cl)c1=O` [Compound No. 14, 4-Chloro-5-(3,4-dimethoxybenzylamino)-2-n-propyl-3-(2H)pyridazinone], for which the inhibition at 10 µg/mL was determined as 100% in data set [1] and 36% in data set [5]. The “Inhibition of anaphylactic bronchoconstriction” value in data set [3] (EA 10 mg/kg, 3% Tween 80) is on record as 28%.
`CC(C)(C)n1ncc(NCc2ccc3c(c2)OCO3)c(Cl)c1=O` [compound 18] had an inhibition at 0.5 µg/mL in data set [2] of 74%.
With `CCn1ncc(NCc2cccc(C)c2)c(Cl)c1=O` [compound 75], the “Lethal ratio (Death number/Experimental number)” value in data set [4] (100 mg/kg) is on record as 0/2. The inhibition at 10 µg/mL in data set [1] is 100%; in data set [5] it was 90%. Further, the “Inhibition of anaphylactic bronchoconstriction” value in data set [3] (EA 0.1 mg/kg, Tween 80) was found to be 57%.
`CC(C)n1ncc(NCc2ccc3c(c2)OCO3)c(Cl)c1=O` [compound 119]: the inhibition at 10 µg/mL in data set [1] and in data set [5] was 100% throughout. The “Inhibition of anaphylactic bronchoconstriction” value in data set [3] (EA 0.1 mg/kg, Tween 80) is reported as 33%.
Consider `COc1ccccc1CNc1cnn(C(C)C)c(=O)c1Cl` [compound 86], for which the “Lethal ratio (Death number/Experimental number)” value in data set [4] (200 mg/kg) is 0/2; in data set [4] (400 mg/kg), 0/1. For the same compound, the inhibition at 10 µg/mL worked out at 100% in data set [1] and 87% in data set [5]. Further, in data set [3] (EA 0.1 mg/kg, Tween 80), the “Inhibition of anaphylactic bronchoconstriction” value came to 29%.
Taken in the same sequence, the figures for `COc1ccc(CNc2cnn(C(C)C)c(=O)c2Cl)c(OC)c1` [Compound No. 97, 4-chloro-5-(2,4-dimethoxybenzylamino)-2-i-propyl-3(2H)pyridazinone] were 0/2, 0/1, 100%, 100% and 32%.
`COc1ccc(CNc2cnn(C(C)C)c(=O)c2Cl)cc1` [Compound No. 87]: the “Lethal ratio (Death number/Experimental number)” value in data set [4] (200 mg/kg) and in data set [4] (400 mg/kg) was 0/2 in each case. This compound had an inhibition at 10 µg/mL in data set [5] of 100%. Besides, the “Inhibition of anaphylactic bronchoconstriction” value in data set [3] (EA 0.1 mg/kg, Tween 80) came out at 61%.
Take `CCOc1cccc(CNc2cnn(CC)c(=O)c2Cl)c1` [compound 88]: the “Lethal ratio (Death number/Experimental number)” value in data set [4] (200 mg/kg) and in data set [4] (400 mg/kg) was 0/2 in each case. Besides, the values for the inhibition at 10 µg/mL in data set [1] and in data set [5] were 81% and 95%, respectively. In addition, the “Inhibition of anaphylactic bronchoconstriction” value in data set [3] (EA 0.1 mg/kg, Tween 80) was 45%.
Take `CN(C)c1ccc(CNc2cnn(C(C)(C)C)c(=O)c2Cl)cc1` [Compound No. 25, 4-Chloro-5-(4-dimethylaminobenzylamino)-2-t-butyl-3(2H)-pyridazinone]: in data set [2], the SRS-A antagonism is listed as 81%.
Regarding `CC(C)(C)n1ncc(NCc2ccc(C(=O)O)cc2)c(Cl)c1=O` [Compound No. 23, 4-chloro-5-(4-carboxybenzylamino)-2-t-butyl-3(2H)pyridazinone], in data set [2], the inhibition at 0.5 µg/mL was 18%.
For the compound `CCN1CCN(C(=O)c2ccc(CNc3cnn(C(C)(C)C)c(=O)c3Cl)cc2)CC1` [compound 42], the inhibition at 0.5 µg/mL in data set [2] was 14%.
Still for that read-out and setting: the result for `CN1CCN(Cc2ccc(CNc3cnn(C(C)(C)C)c(=O)c3Cl)cc2)CC1` [compound 34] reads 19%.
For the compound `CCOc1cccc(CNc2cnn(C(C)C)c(=O)c2Cl)c1` [Compound No. 89], the “Lethal ratio (Death number/Experimental number)” value was 0/2 in data set [4] (200 mg/kg) and 0/1 in data set [4] (400 mg/kg). The inhibition at 10 µg/mL in data set [1] worked out at 89%; in data set [5], 95%. Besides, the “Inhibition of anaphylactic bronchoconstriction” value in data set [3] (setting [6]) was 79%.
Regarding `CCn1ncc(NCc2ccc(C)cc2C)c(Cl)c1=O` [compound 79], the “Lethal ratio (Death number/Experimental number)” value in data set [4] (200 mg/kg) is listed as 0/2. Also, in data set [5], the inhibition at 10 µg/mL turned out to be 100%. Also, the “Inhibition of anaphylactic bronchoconstriction” value in data set [3] (EA 0.1 mg/kg, Tween 80) worked out at 61%.

(Values after patent publication US5098900A, “3(2H)pyridazinone, process for its preparation and anti-allergic agent containing it” (Nissan Chemical Industries Ltd., priority 1984, dated 1992).)
